In US4153695A, “Substituted 2,3-dihydro imidazo[1,2-c]pyrimidines” (priority 1978, dated 1979):
Several values for one entry are separate records, joined by “and”; a condition that tells them apart may be missing. Equal values may be shown once. Where a name gives a salt, the structure may show the parent alone. Read-outs that look alike come from different tables or passages of the source.

Key:
[1] = test system: Herpes simplex virus; assay: In vitro plaque inhibition of Herpes simplex virus in BSC-1 or Hela cells (Table 3); format: cell-based; details: for inhibition at 3 µg/mL: read-out: PERCENT INHIBITION OF PLAQUES AT 3 mcg/ml; for inhibition at 12 µg/mL: read-out: PERCENT INHIBITION OF PLAQUES AT 12 mcg/ml; for inhibition at 25 µg/mL: read-out: PERCENT INHIBITION OF PLAQUES AT 25 mcg/ml; for PERCENT INHIBITION OF PLAQUES AT 50 mcg/ml / inhibition at 50 µg/mL: 50 mcg/ml; for inhibition at 50 µg/mL: read-out: PERCENT INHIBITION OF PLAQUES AT 50 mcg/ml; for inhibition at 6 µg/mL: read-out: PERCENT INHIBITION OF PLAQUES AT 6 mcg/ml; for inhibition at 100 µg/mL: 100 mcg/ml, read-out: PERCENT INHIBITION OF PLAQUES AT 100 mcg/ml
Description: The compounds of this invention also have anti-viral activity in vitro against Herpes simplex virus.
African green monkey kidney cells (BSC-1) or Hela cells (5-3) were grown in 25 cc. Falcon flasks at 37° C. in medium 199 with 5 percent inactivated fetal bovine serum (FBS), penicillin (150 units 1 ml.) and streptomycin (150 mcg./ml.). When confluent monolayers were formed, the supernatant growth medium was removed and 0.3 ml. of an appropriate dilution of Herpes simplex virus was added to each flask. After adsorption for one hour at room temperature, the virus infected cell sheet was overlaid with a medium comprising one part of 1 percent Ionagar No. 2 and one part double strength medium 199 with FCS, (fetal calf serum) penicillin, and streptomycin and also containing drug at concentrations of 100, 50, 25, 12, 6 and 3 micrograms per milliliter (mcg./ml.). The flask containing no drug served as a control. The stock solutions of 2,3-dihydroimidazo[1,2-c]pyrimidine compounds were made up in dimethylsulfoxide dilution at a concentration of 10^4 mcg./ml. The flasks were incubated for 72 hours at 37° C. […] A solution of 10 percent formalin and 2 percent sodium acetate was added to each flask to inactivate the virus and fix the cell sheet to the surface of the flask. The virus plaques, irrespective of size, were counted after staining the surrounding cell areas with crystal violet. The plaque count was compared to the control count at each drug concentration. The activity of the test compound was expressed as percentage plaque inhibition. Table 3, which follows, embodies the results of these determinations. In the table, column 1 gives the name of the compound, columns 2 through 6, the percent inhibition of herpes simplex plaques at various mcg./ml. levels of drug.

[2] = test system: cutaneous Herpes simplex virus type 1; assay: Topical treatment of cutaneous Herpes simplex virus type 1 lesions on guinea pig back, final score (Table 1); format: in vivo, guinea pigs; details: lesions scored 0 to 4+
Description: Three epilated areas on each guinea pig back were inoculated with approximately 1×10^5 plaque forming units of virus using a Sterneedle triggered 10 times for each area. Untreated guinea pigs so inoculated developed consistent rosette lesions in about 96 hours. All three areas on the back of each guinea pig were drug-treated and these compared with separate control animals which were treated with the particular vehicle employed for administering the drug. The positive control animals were treated with 0.5-1.0 percent phosphonoacetic acid (PAA) suspended in the same vehicle as the drug. Animals were inoculated on the morning of day 1 and treated on the afternoon of day 1. Two treatments per day were administered through day 5 for a total of 10 treatments. Hair was again epilated on day 5 and readings were begun then and taken daily through day 10. Lesions for each area were scored from 0 to 4+, which was a fully developed herpatic lesion with inflammation vesicles and pustules. An average score was then calculated for each drug for each day for the number of treated areas and control areas. Usually 3-6 guinea pigs were used per drug. After scoring, a final score or mean of means was calculated for drug-treated and for control areas. Table I which follows gives the results of determinations carried out as outlined above on compounds coming within the scope of this invention. In the table, column 1 gives the name of the drugs, column 2, the vehicle, column 3, the concentration; column 4, the number of animals used; and columns 5, the final score.

[3] = test system: Herpes simplex virus type I and Herpes simplex virus type II; assay: Intravaginal treatment of Herpes simplex virus type I and type II infection in guinea pigs, final score (Table 2); format: in vivo
Description: A second in-vivo test against Herpes simplex virus type I and Herpes simplex virus type II was carried out as follows. Guinea pigs were inoculated intravaginally by swabing the vagina with an absorbent cotton swab containing 2×10^4 plaque forming units of the virus. Prior to the inoculation with the virus, the vagina was swabbed with physiological saline to remove potential virus inhibitors. Treatment was started four hours after inoculation and continued for four days. The drug in a suitable base was introduced into the vaginal area also with an absorbent cotton swab. Controls in which the vehicle only were swabbed were included. Beginning on day 5 after inoculation and continuing through day 10, each animal was examined and scored from 0 to 4+ for secretion, inflammation, vesiculation and necrosis, thus yielding a possible top score of +16 per guinea pig. In the table, column 1 gives the name of the compound; column 2, the vehicle; column 3, the concentration; column 4, the number of animals used; and columns 5, the final score.

[4] = 25 mcg/ml, 72 hours at 37° C., hydrochloride
[5] = 72 hours at 37° C., hydrochloride
[6] = 72 h, 3 mcg/ml, 72 hours at 37° C.
[7] = 72 h, 12 mcg/ml, 72 hours at 37° C.
[8] = 72 h, 25 mcg/ml, 72 hours at 37° C.
[9] = 72 h, 6 mcg/ml, 72 hours at 37° C.
[10] = vehicle R, 2.5 % conc., top score +16

Row | SMILES | inhibition at 3 µg/mL [1, 6] | inhibition at 12 µg/mL [1, 7] | inhibition at 25 µg/mL [1, 8] | inhibition at 50 µg/mL ([1]; 72 h, 72 hours at 37° C.) | inhibition at 6 µg/mL [1, 9] | inhibition at 100 µg/mL ([1]; 72 h, 72 hours at 37° C.) | other results
1 | CC1=NC(Cl)=CC2=NC(c3ccccc3)CN12.Cl (racemic) [2-phenyl-5-methyl-7-chloro-2,3-dihydroimidazo[1,2-c]pyrimidine hydrochloride] | 0% | 41% | 87% | 100% |  |  | PERCENT INHIBITION OF PLAQUES AT 12 mcg/ml ([1]; 12 mcg/ml, 72 hours at 37° C., hydrochloride): 50%; PERCENT INHIBITION OF PLAQUES AT 25 mcg/ml [1, 4]: 83%; PERCENT INHIBITION OF PLAQUES AT 50 mcg/ml [1, 5]: 89%
2 | CC1=NC(Cl)=CC2=NCC(C)N12 (racemic) [dl-3,5-dimethyl-7-chloro-2,3-dihydroimidazo[1,2-c]pyrimidine hydrochloride] |  | 0% | 12% | 74% | 0% |  | 
3 | CC1=NC(Cl)=CC2=NCC(c3ccccc3)N12 (racemic) [dl-3-phenyl-5-methyl-7-chloro-2,3-dihydroimidazo[1,2-c]pyrimidine hydrochloride] | 0% |  | 78% | 100% | 0% |  | Final Score ([2]; vehicle D, 2.5 % conc.): 1.72; PERCENT INHIBITION OF PLAQUES AT 25 mcg/ml [1, 4]: 68%; PERCENT INHIBITION OF PLAQUES AT 50 mcg/ml [1, 5]: 95%
4 | CSC1=NC(Cl)=CC2=NCC(c3ccccc3)N21 (racemic) [dl-3-phenyl-5-methylthio-7-chloro-2,3-dihydroimidazo[1,2-c]pyrimidine hydrochloride] |  |  |  |  |  |  | inhibition at 3 µg/mL ([1]; 3 mcg/ml, high virus input (HV)): 23%; inhibition at 3 µg/mL ([1]; 3 mcg/ml, low virus input (LV)): 57%; inhibition at 6 µg/mL ([1]; 6 mcg/ml, high virus input (HV)): 84%; inhibition at 6 µg/mL ([1]; 6 mcg/ml, low virus input (LV)): 100%
5 | NC1=NC(Cl)=CC2=NCCN12 [5-Amino-7-chloro-2,3-dihydroimidazo[1,2-c]pyrimidine hydrochloride] | 0% | 0% | 0% | 0% | 0% | 11% | 
6 | CCC1=NC(Cl)=CC2=NCCN21.Cl [5-Ethyl-7-chloro-2,3-dihydroimidazo[1,2-c]pyrimidine hydrochloride] | 0% |  | 50% |  |  | 100% | Final Score ([2]; vehicle D, 1.0 % conc.): 1.09; Final Score ([2]; vehicle D, 1.5 % conc.): 1.53; Final Score ([2]; vehicle D, 2.5 % conc.): 1.60; Final Score [3, 10]: 2.83; PERCENT INHIBITION OF PLAQUES AT 25 mcg/ml [1, 4]: 33%; PERCENT INHIBITION OF PLAQUES AT 50 mcg/ml [1, 5]: 76%
7 | CSC1=NC(Cl)=CC2=NCCN21.Cl [5-Methylthio-7-chloro-2,3-dihydroimidazo[1,2-c]pyrimidine hydrochloride] | 30% | 100% |  |  | 49% |  | Final Score ([2]; vehicle R, 2.5 % conc.): 2.00; Final Score ([3]; vehicle D, 2.5 % conc., top score +16): 3.81; Final Score [3, 10]: .92; PERCENT INHIBITION OF PLAQUES AT 6 mcg/ml ([1]; 6 mcg/ml, 72 hours at 37° C., hydrochloride): 48%
8 | CSC1=NC(Cl)=C(c2ccccc2)C2=NCCN12.Cl [5-Methylthio-7-chloro-8-phenyl-2,3-dihydroimidazo[1,2-c]pyrimidine hydrochloride] |  |  |  |  |  |  | Final Score ([2]; vehicle D, 2.5 % conc.): 1.97; PERCENT INHIBITION OF PLAQUES AT 3 mcg/ml ([1]; 3 mcg/ml, 72 hours at 37° C., hydrochloride): 100% and 58%
9 | CC1=NC(Cl)=CC2=NCCN12.Cl [5-methyl-7-chloro-2,3-dihydroimidazo[1,2-c]pyrimidine hydrochloride] |  | 0% |  | 85% | 0% |  | Final Score ([2]; vehicle B, 1.0 % conc.): 2.06; Final Score ([2]; vehicle D, 1.0 % conc.): 1.56; Final Score ([2]; vehicle K, 1.0 % conc.): 1.95; Final Score ([2]; vehicle R, 1.0 % conc.): 1.81; Final Score ([3]; vehicle C, 2.5 % conc., top score +16): 7.9; Final Score ([3]; vehicle D, 2.0 % conc., top score +16): 6.13; Final Score ([3]; vehicle R, 2.0 % conc., top score +16, hydrochloride): 3.17 and 3.57; PERCENT INHIBITION OF PLAQUES AT 50 mcg/ml [1, 5]: 82%
10 | CNC1=CC2=NCCN2C(C)=N1 [5-methyl-7-methylamino-2,3-dihydroimidazo[1,2-c]pyrimidine dihydrochloride] |  | 0% | 27% | 18% | 0% | 30% | 
11 | CC1=NC(N2CCCC2)=CC2=NCCN12 [5-methyl-7-pyrrolidino-2,3-dihydroimidazo[1,2-c]pyrimidine hydrochloride] | 0% | 0% | 0% | 0% | 0% | 7% | 
12 | CCCCCC1=NC(Cl)=CC2=NCCN21 [5-n-Amyl-7-chloro-2,3-dihydroimidazo[1,2-c]pyrimidine hydrochloride] | 0% |  |  | 100% | 0% |  | 
13 | Cl.O=[N+]([O-])C1=C(NCCCl)N=CN2CCN=C12 [7-(β-chloroethylamino)-8-nitro-2,3-dihydroimidazo[1,2-c]pyrimidine hydrochloride] |  |  |  |  |  |  | Final Score [3, 10]: 1.25; inhibition at 6 µg/mL ([1]; 72 h): 33%; inhibition at 12 µg/mL ([1]; 72 h): 41%; inhibition at 25 µg/mL ([1]; 72 h): 68%
14 | CC1=NC(N(C)Cc2ccccc2)=CC2=NCCN12 [N,5-dimethyl-7-benzylamino-2,3-dihydroimidazo[1,2-c]pyrimidine hydrochloride] |  | 0% | 0% | 0% | 0% | 9% | 
